Assay results taken from PMC5454376, “Molecular mechanism of Gαi activation by non-GPCR proteins with a Gα-Binding and Activating motif” (Nature Communications, 2017).

System: Gαi3 N269D
Assay: Co-immunoprecipitation in HEK293T cells, Gαi3 N269D versus WT
Assay type: binding
Details: HEK293T lysates, FLAG-tagged Gαi3 N269D vs WT; GST-Ric-8A 1 μg added
Protocol: HEK293T cells (American Type Culture Collection) were grown at 37 °C in DMEM supplemented with 10% FBS, 100 U ml^−1 penicillin, 100 μg ml^−1 streptomycin, 1% L-glutamine and 5% CO2. DNA plasmids encoding for C-terminally 3xFLAG-tagged Gαi3 (ref. [25]) or an empty plasmid (p3xFLAG-CMV-14) were transfected using the calcium phosphate method in 10 cm dishes. The DNA amount for the Gαi3 N269D plasmid was threefold (12 μg) of that for Gαi3 WT (4 μg) to equalize their expression levels. Cells were collected 48 h after transfection by gently scrapping in PBS, centrifuged and resuspended in 1 ml of lysis buffer (20 mM HEPES (pH 7.2), 5 mM Mg(CH3COO)2, 125 mM K(CH3COO), 0.4% (v:v) Triton X-100, 1 mM DTT, 10 mM β-glycerophosphate and 0.5 mM Na3VO4 supplemented with a protease inhibitor cocktail (Sigma; catalogue #S8830)) and cleared (14,000g for 10 min) before use. Lysates were supplemented with 1 μg of purified GST-Ric-8A (12–491)[22] and 2 μg of mouse anti-FLAG antibody (Sigma F1804), and incubated for 4 h at 4 °C with rotation. BSA-blocked Protein G agarose beads (Thermo-Scientific) were added and tubes incubated for additional 90 min at 4 °C. Beads were washed four times (4.3 mM Na2HPO4, 1.4 mM KH2PO4, pH 7.4, 137 mM NaCl, 2.7 mM KCl, 0.1% (v/v) Tween 20, 10 mm MgCl2, 5 mm EDTA and 1 mm DTT) and immunoprecipitated proteins eluted by boiling in Laemmli sample buffer. […]

For “Full-length GIV: full-length GIV from HEK293T cells, 1,870 amino acids”, the “co-immunoprecipitation with nucleotide-free-mimicking mutant compared with WT” value was “as efficiently as with the wild-type (WT) protein”.
